Converted amounts (≈) assume the structure as drawn.
Key:
TYK2 = TYK2 (Mus musculus (Mouse), UniProt Q9R117); test: Luciferase assay in L929 ISRE cells stimulated with IFN-α; type: cell-based; details: IFN-α 100 ng/mL; for inhibition at 0.1 µM: 100 nM, read-out: Inhibitory activity % (100 nM); for inhibition at 1 µM: 1000 nM, read-out: Inhibitory activity % (1000 nM); for inhibition at 0.05 µM: 50 nM, read-out: Inhibitory activity % (50 nM); for inhibition at 0.2 µM: 200 nM, read-out: Inhibitory activity % (200 nM)
Chain of TYK2 (Q9R117 whole entry): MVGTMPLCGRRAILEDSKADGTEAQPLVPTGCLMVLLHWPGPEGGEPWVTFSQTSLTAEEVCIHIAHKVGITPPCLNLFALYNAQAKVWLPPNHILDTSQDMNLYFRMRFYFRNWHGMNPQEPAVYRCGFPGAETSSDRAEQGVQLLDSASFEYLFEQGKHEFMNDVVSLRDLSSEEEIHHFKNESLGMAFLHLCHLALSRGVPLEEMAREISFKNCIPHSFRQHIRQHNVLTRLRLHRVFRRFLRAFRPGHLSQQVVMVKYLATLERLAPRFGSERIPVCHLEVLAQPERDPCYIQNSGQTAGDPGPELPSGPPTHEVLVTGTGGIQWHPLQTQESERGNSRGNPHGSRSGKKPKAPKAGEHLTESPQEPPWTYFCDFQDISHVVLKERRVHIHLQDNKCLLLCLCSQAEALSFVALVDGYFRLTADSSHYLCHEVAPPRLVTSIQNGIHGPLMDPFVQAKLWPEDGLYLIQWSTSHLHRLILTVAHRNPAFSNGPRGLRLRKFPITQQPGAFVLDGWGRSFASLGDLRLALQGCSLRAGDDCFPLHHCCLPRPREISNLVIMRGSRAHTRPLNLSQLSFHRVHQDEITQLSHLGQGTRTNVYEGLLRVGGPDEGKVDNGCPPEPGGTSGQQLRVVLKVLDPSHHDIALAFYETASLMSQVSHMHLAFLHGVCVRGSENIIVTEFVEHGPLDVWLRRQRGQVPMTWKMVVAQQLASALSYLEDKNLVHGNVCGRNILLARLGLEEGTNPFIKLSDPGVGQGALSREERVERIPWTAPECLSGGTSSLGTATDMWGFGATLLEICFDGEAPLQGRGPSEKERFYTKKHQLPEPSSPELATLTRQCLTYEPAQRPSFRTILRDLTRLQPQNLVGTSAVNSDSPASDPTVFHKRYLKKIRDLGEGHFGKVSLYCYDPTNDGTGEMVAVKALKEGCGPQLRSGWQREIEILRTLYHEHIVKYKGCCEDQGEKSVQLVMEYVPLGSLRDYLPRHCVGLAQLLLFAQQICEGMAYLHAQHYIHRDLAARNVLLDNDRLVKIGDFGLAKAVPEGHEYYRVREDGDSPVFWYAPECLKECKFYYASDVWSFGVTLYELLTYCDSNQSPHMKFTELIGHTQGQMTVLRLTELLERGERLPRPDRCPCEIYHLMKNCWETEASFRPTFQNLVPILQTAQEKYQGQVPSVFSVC
Procedure: • 1. L929 ISRE cells (5000 cells/well) were seeded on 96-well plates and incubated overnight at room temperature; • 2. The cells were pretreated by adding different concentrations (10 nM, 50 nM, 100 nM, 200 nM or 1000 nM) of the test compounds for 2 hours; • 3. Added IFN-α (100 ng/mL) to stimulate cells for 6 hours; • 4. Removed the upper medium, add PBS (100 μL) and washed, then removed PBS; • 5. Added PLB lysis solution (50 μL) to each well, shook the well for 15 minutes; • 6. Transferred PLB lysis solution (30 μL) to a new 96-well whiteboard, added LAR II reagent (LAR II), then quickly read the […]; • 7. Added Stop & Glo reagent (30 μL), then read the 450 nm OD value using the plate washer. • 8. The final results in Table 3 were the OD value in step 6/OD value in step 7.

[1] = Plasma protein binding test, mouse; type: in vitro ADME
Procedure: • 1. Test compound and control compound were dissolved in dimethyl sulfoxide (DMSO) to achieve 10 mM stock solutions. DMSO working solutions were prepared at 400 μM. To prepare the loading matrix, compound working solutions (5 μL) were added in a 1:200 ratio to blank matrix (995 μL), and mixed thoroughly. • 2. To prepare the time zero (TO) samples to be used for recovery determination, 50 μL aliquots of loading matrix were transferred in triplicate to the sample collection plate. The samples were immediately matched with opposite blank buffer to obtain a final volume of 100 μL of 1:1 matrix/dialysis buffer (v/v) in each well. 500 μL of stop solution were added to these TO samples. They were then stored at 2-8° C. pending further processes along with other post-dialysis samples. • 3. To load the dialysis device, an aliquot of 150 μL of the loading matrix was transferred to the donor side of each dialysis well in triplicate, and 150 μL of the dialysis buffer was loaded to the receiver side of the well. The dialysis plate was placed in a humidified incubator at 37° C. with 5% CO2 on a shaking platform that rotated slowly (about 100 rpm) for 4 hours • 4. At the end of the dialysis, aliquots of 50 μL of samples were taken from both the buffer side and the matrix side of the dialysis device. These samples were transferred into new 96-well plates. Each sample was mixed with an equal volume of opposite blank matrix (buffer or matrix) to reach a final volume of 100 μL of 1:1 matrix/dialysis buffer (v/v) in each well. All samples were further processed by adding 500 μL of stop solution containing internal standards. The mixture was vortexed and centrifuged at 4000 rpm for about 20 minutes. An aliquot of 100 μL of supernatant of all the samples was then removed for LC-MS/MS analysis • 5. The single blank samples were prepared by transferring […] of blank matrix to a 96 well plate and adding 50 μL of blank PBS buffer to each well. The blank plasma must match the species of plasma used in the plasma side of the well. […]
The % Unbound and % Bound were calculated using the following equations: […]

[2] = Pharmacokinetic evaluation in rats; type: in vivo, rat; details: for AUC / Vd / clearance / half-life / Cmax / Tmax: male, plasma; for AUC / Vd / clearance / half-life / Cmax / Tmax / F: rat; for plasma exposure and bioavailability in rat (in words): conclusion from Table 10
Procedure: The rat pharmacokinetic characteristics of compounds were tested by standard protocols. The candidate compounds were made into clear solution for single intravenous injection (i.v.) and suspension for oral administration (p.o.). Intravenous vehicle is 5% DMSO+10% Solutol+85% Saline. Of which adjusts pH to 3 for B37. While oral vehicle is 0.5% CMCNa for B2 and B22, 5% DMSO+10% Solutol+85% Saline, pH˜3 for B37, 5% DMSO+10% Solutol+85% Saline for B41. The experiment used 6 male rats and 3 rats for intravenous at a dose of 2 mg/kg. Plasma samples were collected at 0 h (before dosing) and 0.083 h, 0.25 h, 0.5 h, 1 h, 2 h, 4 h, 8 h, 24 h after dosing. 3 rats were orally administrated at a dose of 10 mg/kg. Plasma samples were collected at 0 h (before dosing) and 0.25 h, 0.5 h, 1 h, 2 h, 4 h, 6 h, 8 h, 24 h after dosing.
Blood samples were placed in tubes containing K2-EDTA and stored on ice until centrifuged. The blood samples were centrifuged at 6800 g for 6 minutes at 2-8° C. within 1 h after collected, and stored frozen at approximately −80° C.
The analytical results were confirmed using quality control samples for intra-assay variation. The accuracy of >66.7% of the quality control samples and 50% of all QC samples at each concentration level were between 80-120% of the known value(s).
Standard set of parameters including area under the curve (AUC(0-t) and AUC(0-∞)), elimination half-live (T1/2), maximum plasma concentration (Cmax), time to reach maximum plasma concentration (Tmax) were calculated using noncompartmental analysis modules in FDA certified pharmacokinetic program Phoenix WinNonlin 7.0 (Pharsight, USA) by the Study Director.

Kinetic solubility test = type: physicochemical; details: for kinetic solubility (in words): conclusion from Table 6; for solubility kinetic at 2 h: phosphate buffer, aqueous buffer, kinetic from dmso stock, 50 mM PB pH 7.4
Procedure: • 1. 10 μL of test and control compounds (10 mM) in DMSO was added into lower chambers of Whatman mini-uniprep vials, respectively. • 2. Added 490 μL of 50 mM PB (pH 7.4) into lower chambers of the Whatman mini-uniprep vials, respectively. • 3. […] Shook the mini-uniprep vials on a Barnstead shaker for 2 hours at room temperature at the speed of 800 rpm. • 5. Centrifuged 20 minutes (e.g. 4000 rpm) • 6. Compressed mini-unipreps to prepare the filtrates for injection into UPLC system to calculate the concentration with standard curve.

Compound | inhibition at 0.1 µM (TYK2) | inhibition at 1 µM (TYK2) | fraction unbound at 4 h, 2 μM [1] | AUC ([2]; iv, i.v. 2 mg/kg) | Vd ([2]; iv, i.v. 2 mg/kg) | clearance ([2]; iv, i.v. 2 mg/kg) | half-life ([2]; iv, i.v. 2 mg/kg) | AUC ([2]; po, p.o. 10 mg/kg) | Cmax ([2]; po, p.o. 10 mg/kg) | Tmax ([2]; po, p.o. 10 mg/kg) | F ([2]; p.o. 10 mg/kg) | kinetic solubility (in words) (Kinetic solubility test) | solubility kinetic at 2 h (Kinetic solubility test) | inhibition at 0.05 µM (TYK2) | inhibition at 0.2 µM (TYK2) | plasma exposure and bioavailability in rat (in words) [2] | inhibition at 0.01 µM (TYK2; 10 nM, read-out: Inhibitory activity % (10 nM))
[2H]C([2H])([2H])n1nc(-c2cccc(Nc3cc(NC(=O)C4CC4)ncc3C(=O)CC)c2OC)cc1P(C)(C)=O [Compound B22] | 43% | 83% | 0.03 | 2670 ng·h/mL | 1.4 L/kg | 12.7 mL/min/kg | 1.3 h | 2280 ng·h/mL | 694 ng/mL | 1.83 h | 17% | good | 91.9 µM (≈ 45.8 µg/mL) | – | – | – | –
CCC(=O)c1cnc(NC(=O)C2CC2)cc1Nc1cccc(-c2cc(P(=O)(C3CC3)C3CC3)n(C)n2)c1OC [Compound B37, N-(4-((3-(5-(dicyclopropylphosphoryl)-1-methyl-1H-pyrazol-3-yl)-2-methoxyphenyl)amino)-5-propionylpyridin-2-yl)cyclopropanecarboxamide] | – | 97% | – | 3090 ng·h/mL | 0.9 L/kg | 10.9 mL/min/kg | 0.96 h | 9420 ng·h/mL | 1890 ng/mL | 2.05 h | 61% | – | – | 89% | 95% | good plasma exposure and bioavailability | –
CCC(=O)c1cnc(NC(=O)C2CC2)cc1Nc1cccc(-c2cc(P(C)(C)=O)n(C)n2)c1OC [Compound B2, N-(4-((3-(5-(dimethylphosphoryl)-1-methyl-1H-pyrazol-3-yl)-2-methoxyphenyl)amino)-5-propionylpyridin-2-yl)cyclopropanecarboxamide] | 58% | 94% | 0.067 | 2430 ng·h/mL | 1.5 L/kg | 13.8 mL/min/kg | 1.3 h | 5900 ng·h/mL | 2020 ng/mL | 0.67 h | 49% | good | 52.4 µM (≈ 26 µg/mL) | – | – | good plasma exposure and bioavailability | 45%
[2H]C([2H])([2H])NC(=O)c1nnc(NC(=O)C2CC2)cc1Nc1cccc(-c2cc(P(=O)(C3CC3)C3CC3)n(C)n2)c1OC [Compound B41, 6-(cyclopropanecarboxamido)-4-((3-(5-(dicyclopropylphosphoryl)-1-methyl-1H-pyrazol-3-yl)-2-methoxyphenyl)amino)-N-(methyl-d3)pyridazine-3-carboxamide] | – | 97% | 0.018 | 2880 ng·h/mL | 1 L/kg | 11.6 mL/min/kg | 1 h | 6900 ng·h/mL | 1800 ng/mL | 2.83 h | 48% | low to moderate | 11.3 µM (≈ 6.24 µg/mL) | 86% | 92% | good plasma exposure and bioavailability | –
